Test results published in patent publication US8476197B2, “Aminopropenoates as fungicides” (priority 2009, dated 2013).
Marks after values point to notes of the source that are not given here.

Settings: pH 2.7

Row | Log P | Structure (SMILES)
1 | 3.84^[a] | CCOC(=O)C(C#N)=C(Nc1ccccc1SC)c1cc(C)oc1C [Compound 414]
2 | 4.7^[a] | CCOC(=O)C(C#N)=C(Nc1ccccc1SC(F)(F)C(F)(F)F)c1cc(C)oc1C [Compound 415]
3 | 4.3^[a] | CCOC(=O)C(C#N)=C(Nc1ccccc1SCC(F)(F)F)c1cc(C)oc1C [Compound 416]
4 | 2.65^[a] | CCOC(=O)C(C#N)=C(Nc1ccccc1S(C)(=O)=O)c1cc(C)oc1C [Compound 417]
5 | 5.08^[a] | CCOC(=O)C(C#N)=C(Nc1ccccc1Sc1ccc(C)cc1)c1cc(C)oc1C [Compound 419]
6 | 4.25^[a] | C=CCSc1ccccc1NC(=C(C#N)C(=O)OCC)c1cc(C)oc1C [Compound 420]
7 | 4.57^[a] | CCOC(=O)C(C#N)=C(Nc1ccccc1SC(C)C)c1cc(C)oc1C [Compound 421]
8 | 3.99^[a] | CCOC(=O)C(C#N)=C(Nc1ccccc1Br)c1cc(C)oc1C [Compound 422]
9 | 3.23^[a] | COC(=O)C(C#N)=C(NC(C)Cc1ccccc1C)c1cccnc1Cl (centres unmarked) [Compound 423]
10 | 3.27^[a] | COC(=O)C(C#N)=C(NC(C)CCc1ccccc1)c1cccnc1Cl (centres unmarked) [Compound 424]
11 | 3.68^[a] | COC(=O)C(C#N)=C(NC(C)CCc1cccc(C)c1)c1cccnc1Cl (centres unmarked) [Compound 425]
12 | 3.98^[a] | COC(=O)C(C#N)=C(NC(C)c1ccc(Cl)cc1)c1sc(C)nc1C(F)(F)F (centres unmarked) [Compound 427]
13 | 3.46^[a] | COC(=O)C(C#N)=C(Nc1ccccc1SC)c1sc(C)nc1C(F)(F)F [Compound 428]
14 | 3.95^[a] | CCOC(=O)C(C#N)=C(NC(C)c1ccc(Cl)cc1)c1cn(C)nc1C(F)(F)F (centres unmarked) [Compound 430]
15 | 3.48^[a] | CCOC(=O)C(C#N)=C(Nc1ccccc1SC)c1cn(C)nc1C(F)(F)F [Compound 431]
16 | 3.8^[a] | CCOC(=O)C(C#N)=C(Nc1ccccc1SC)c1sc(C)nc1C(F)(F)F [Compound 432]
17 | 4.27^[a] | CCOC(=O)C(C#N)=C(NC(C)c1ccc(Cl)cc1)c1sc(C)nc1C(F)(F)F (centres unmarked) [Compound 433]
18 | 4.4^[a] | CCOC(=O)C(C#N)=C(NC(C)c1ccc(Cl)cc1)c1sccc1Cl (centres unmarked) [Compound 434]
19 | 3.92^[a] | CCOC(=O)C(C#N)=C(Nc1ccccc1SC)c1sccc1Cl [Compound 435]
20 | 3.94^[a] | CCOC(=O)C(C#N)=C(Nc1ccccc1SC)c1ccsc1I [Compound 436]
21 | 4.56^[a] | CCOC(=O)C(C#N)=C(NC(C)CCc1ccccc1)c1sccc1C(F)(F)F (centres unmarked) [Compound 437]
22 | 4.11^[a] | CCOC(=O)C(C#N)=C(Nc1ccc(Cl)cc1)c1sccc1Br [Compound 457]
23 | 4.01^[a] | CCOC(=O)C(C#N)=C(NCc1ccccc1SC)c1sccc1Br [Compound 458]
24 | 4.09^[a] | CCOC(=O)C(C#N)=C(Nc1cccc(Cl)c1)c1sccc1Br [Compound 459]

Row | Log P | Structure (SMILES)
25 | 4.54^[a] | CCOC(=O)C(C#N)=C(Nc1ccccc1OC(C)C)c1sccc1C(F)(F)F [Compound 460]
26 | 3.78^[a] | CCOC(=O)C(C#N)=C(Nc1ccc(OC(F)F)cc1)c1sccc1C(F)(F)F [Compound 461]
27 | 4.09^[a] | CCOC(=O)C(C#N)=C(Nc1ccc(SC)cc1)c1sccc1C(F)(F)F [Compound 462]
28 | 4.09^[a] | CCOC(=O)C(C#N)=C(NCc1ccccc1SC)c1sccc1C(F)(F)F [Compound 463]
29 | 3.87^[a] | CCOC(=O)C(C#N)=C(NCc1ccccc1SC)c1sc(C)nc1C(F)(F)F [Compound 464]
30 | 2.64^[a] | COC(=O)C(C#N)=C(Nc1ccc2ncsc2c1)c1sc(C)nc1C(F)(F)F [Compound 465]
31 | 3.55^[a] | COC(=O)C(C#N)=C(NCc1ccccc1SC)c1sc(C)nc1C(F)(F)F [Compound 466]
32 | 4.46^[a] | CCOC(=O)C(C#N)=C(Nc1ccccc1OC(C)C)c1sccc1Br [Compound 467]
33 | 3.73^[a] | CCOC(=O)C(C#N)=C(Nc1ccc(OC(F)F)cc1)c1sccc1Br [Compound 468]
34 | 3.09^[a] | CCOC(=O)C(C#N)=C(Nc1ccc2ncsc2c1)c1sccc1Br [Compound 469]
35 | 4.01^[a] | CCOC(=O)C(C#N)=C(Nc1ccc(SC)cc1)c1sccc1Br [Compound 470]
36 | 3.23^[a] | CCOC(=O)C(C#N)=C(Nc1ccc(Cl)cc1)c1cn(C)nc1C(F)F [Compound 475]
37 | 2.98^[a] | CCOC(=O)C(C#N)=C(Nc1ccc2ncsc2c1)c1sc(C)nc1C(F)(F)F [Compound 479]
38 | 3.87^[a] | CCOC(=O)C(C#N)=C(Nc1ccc(SC)cc1)c1sc(C)nc1C(F)(F)F [Compound 480]
39 | 4.75^[a] | CCOC(=O)C(C#N)=C(Nc1ccc(C(C)C)cc1)c1sccc1C(F)(F)F [Compound 481]
40 | 4.04^[a] | CCOC(=O)C(C#N)=C(Nc1cccc(SC)c1)c1sccc1C(F)(F)F [Compound 482]
41 | 3.62^[a] | CCOC(=O)C(C#N)=C(Nc1ccc(OC)cc1)c1sccc1C(F)(F)F [Compound 483]
42 | 3.89^[a] | CCOC(=O)C(C#N)=C(Nc1ccc(N(C)C)cc1)c1sccc1C(F)(F)F [Compound 484]
43 | 3.06^[a] | COC(=O)C(C#N)=C(Nc1ccc(OC)cc1)c1sc(C)nc1C(F)(F)F [Compound 485]
44 | 3.31^[a] | COC(=O)C(C#N)=C(Nc1ccc(N(C)C)cc1)c1sc(C)nc1C(F)(F)F [Compound 486]
45 | 3.55^[a] | CCOC(=O)C(C#N)=C(Nc1ccc(OC)cc1)c1sccc1Br [Compound 488]
46 | 3.76^[a] | CCOC(=O)C(C#N)=C(Nc1ccc(N(C)C)cc1)c1sccc1Br [Compound 489]
47 | 4.73^[a] | CCOC(=O)C(C#N)=C(Nc1ccc(C(C)C)cc1)c1sccc1Br [Compound 490]
48 | 3.96^[a] | CCOC(=O)C(C#N)=C(Nc1cccc(SC)c1)c1sccc1Br [Compound 491]

Row | Log P | Structure (SMILES)
49 | 3.44^[a] | CCOC(=O)C(C#N)=C(Nc1ccc(OC)cc1)c1sc(C)nc1C(F)(F)F [Compound 492]
50 | 3.71^[a] | CCOC(=O)C(C#N)=C(Nc1ccc(N(C)C)cc1)c1sc(C)nc1C(F)(F)F [Compound 493]
51 | 4.54^[a] | CCOC(=O)C(C#N)=C(Nc1ccc(C(C)C)cc1)c1sc(C)nc1C(F)(F)F [Compound 494]
52 | 3.76^[a] | CCOC(=O)C(C#N)=C(Nc1ccc(C(C)C)cc1)c1cn(C)nc1C(F)F [Compound 497]
53 | 3.17^[a] | CCOC(=O)C(C#N)=C(Nc1cccc(SC)c1)c1cn(C)nc1C(F)F [Compound 498]
54 | 4.59^[a] | CCOC(=O)C(C#N)=C(Nc1ccccc1SC)c1cc(Cl)sc1Cl [Compound 500]
55 | 4.62^[a] | CCOC(=O)C(C#N)=C(NC1(c2c(F)cccc2F)CC1)c1cc(Cl)sc1Cl [Compound 501]
56 | 3.99^[a] | CCOC(=O)C(C#N)=C(Nc1ccccc1SC)c1nc(Cl)ccc1Cl [Compound 502]
57 | 4.09^[a] | CCOC(=O)C(C#N)=C(Nc1ccccc1SC)c1ncc(Cl)cc1Cl [Compound 503]
58 | 3.53^[a] | COC(=O)C(C#N)=C(Nc1cccc(SC)c1)c1sc(C)nc1C(F)(F)F [Compound 504]
59 | 3.89^[a] | CCOC(=O)C(C#N)=C(Nc1cccc(SC)c1)c1sc(C)nc1C(F)(F)F [Compound 505]
60 | 3.06^[a] | CCOC(=O)C(C#N)=C(Nc1ccccc1SC)c1cn(C)nc1OC [Compound 507]
61 | 3.02^[a] | CCOC(=O)C(C#N)=C(NC1(c2c(F)cccc2F)CC1)c1cn(C)nc1OC [Compound 508]
62 | 3.21^[a] | CCOC(=O)C(C#N)=C(Nc1ccc2ncsc2c1)c1sccc1C(F)(F)F [Compound 509]
63 | 4.14^[a] | CCOC(=O)C(C#N)=C(Nc1ccc(Cl)cc1)c1sccc1C(F)(F)F [Compound 510]
64 | 4.14 | CCOC(=O)C(C#N)=C(Nc1cccc(Cl)c1)c1sccc1C(F)(F)F [Compound 511]
65 | 3.92^[a] | CCOC(=O)C(C#N)=C(Nc1ccc(Cl)cc1)c1sc(C)nc1C(F)(F)F [Compound 512]
66 | 3.89^[a] | CCOC(=O)C(C#N)=C(Nc1cccc(Cl)c1)c1sc(C)nc1C(F)(F)F [Compound 513]
67 | 3.96^[a] | COC(=O)C(C#N)=C(Nc1ccccc1OC(C)C)c1sc(C)nc1C(F)(F)F [Compound 514]
68 | 3.31^[a] | COC(=O)C(C#N)=C(Nc1ccc(OC(F)F)cc1)c1sc(C)nc1C(F)(F)F [Compound 515]
69 | 3.53^[a] | COC(=O)C(C#N)=C(Nc1ccc(SC)cc1)c1sc(C)nc1C(F)(F)F [Compound 516]
70 | 3.55^[a] | COC(=O)C(C#N)=C(Nc1ccc(Cl)cc1)c1sc(C)nc1C(F)(F)F [Compound 517]
71 | 3.53^[a] | COC(=O)C(C#N)=C(Nc1cccc(Cl)c1)c1sc(C)nc1C(F)(F)F [Compound 518]
72 | 4.36^[a] | CCOC(=O)C(C#N)=C(Nc1ccccc1OC(C)C)c1sc(C)nc1C(F)(F)F [Compound 519]

Row | Structure (SMILES) | Log P
73 | CCOC(=O)C(C#N)=C(Nc1ccccc1SC(F)(F)C(F)Cl)c1cc(C)oc1C (centres unmarked) [Compound 418] | 4.25^[a]
74 | COC(=O)C(C#N)=C(NC(C)Cc1ccccc1)c1cccnc1Cl (centres unmarked) [Compound 426] | 2.98^[a]
75 | CCOC(=O)C(C#N)=C(Nc1ccccc1OC(C)C)c1cn(C)nc1C(F)F [Compound 471] | 3.53^[a]
76 | CCOC(=O)C(C#N)=C(Nc1ccc(OC(F)F)cc1)c1cn(C)nc1C(F)F [Compound 472] | 3.04^[a]
77 | CCOC(=O)C(C#N)=C(Nc1ccc2ncsc2c1)c1cn(C)nc1C(F)F [Compound 473] | 2.44^[a]
78 | CCOC(=O)C(C#N)=C(Nc1ccc(SC)cc1)c1cn(C)nc1C(F)F [Compound 474] | 3.19^[a]
79 | CCOC(=O)C(C#N)=C(NCc1ccccc1SC)c1cn(C)nc1C(F)F [Compound 476] | 3.17^[a]
80 | CCOC(=O)C(C#N)=C(Nc1cccc(Cl)c1)c1cn(C)nc1C(F)F [Compound 477] | 3.21^[a]
81 | COC(=O)C(C#N)=C(Nc1ccc(C(C)C)cc1)c1sc(C)nc1C(F)(F)F [Compound 487] | 4.14^[a]
82 | CCOC(=O)C(C#N)=C(Nc1ccc(OC)cc1)c1cn(C)nc1C(F)F [Compound 495] | 2.77^[a]
83 | CCOC(=O)C(C#N)=C(Nc1ccc(N(C)C)cc1)c1cn(C)nc1C(F)F [Compound 496] | 2.71^[a]
